{
  "source": "patent US20110105554A1",
  "about": "“MEANS FOR TREATING MYOSIN-RELATED DISEASES” (KINARIS BIOMEDICALS GMBH, priority 2007, published 2011)",
  "key": {"Plasmodium merozoites": {"test_system": "Plasmodium merozoites", "test": "In vitro growth assay, blood stages of malaria", "type": "cell-based", "settings": "25 μM"}, "[1]": {"test": "Development toxicity testing on medaka embryos", "settings": "medaka, in vivo", "description": "(§1) (a) KIN-43 in concentrations between 0.5 μM and 100 μM were incubated for 48 h with 20 medaka embryos per concentration. […] (b) Light microscopy image of embryo after 48 h in the absence of KIN-43.\n(§2) We are using a library of common organic molecules and functional groups and are applying an empirical force field description of the nonbonding interactions between a ligand and the binding site in order to build up de novo compounds with spatial and electrostatic properties complementary to the allosteric binding site."}, "medaka embryos": {"test_system": "medaka embryos", "test": "Development toxicity testing on medaka embryos", "description": "as §1, §2"}, "Plasmodium sporozoites": {"test_system": "Plasmodium sporozoites", "test": "Plasmodium sporozoite motility (in vitro imaging)", "type": "cell-based", "source_text": "FIG. 20: (a) Plasmodium sporozoites adopt motility states, shown in the photos from the left to the right, attached, waving, clockwise (CW), and counterclockwise (CCW). In the absence of inhibitors sporozoites preferably move CW and CCW at 0.97 μm/s and 1.13 μm/s.\nPlasmodium sporozoites are moving at very low speed in the salivary glands of infected mosquitoes but are moving at high speed (2 μm/s) upon transmission into the vertebrate host. […] We followed single parasites using in vitro imaging approaches in combination with our bioactive compounds and discovered some intriguing features of sporozoite motility. Under normal conditions sporozoites move in circles, either counterclockwise or clockwise. Two other states of attachment and waving are less populated."}, "in vitro": {"test": "in vitro", "settings": "human", "description": "(§3) Cytotoxicity may be assayed by determining the cellular uptake of neutral red. Only living cells are capable of neutral red uptake via an active transport mechanism. For an exemplary workflow of a cytotoxicity assay, see FIG. 16.\n(§4) FIG. 16: Cytotoxicity assay.\n(§5) FIG. 22: Cytotoxic testing of KIN-compounds by neutral red uptake assays. (a) human hepatocyte carcinoma cells (Hep G2) were exposed to KIN-43 for 4 h in the in presence of 1% FBS.\nas §2"}, "[2]": {"test_system": "human hepatocyte carcinoma cells (Hep G2)", "test": "in vitro", "description": "as §3, §4, §5, §2"}, "Dictyostelium myosin-2 [3]": {"target": "T1, Dictyostelium myosin-2 (Dictyostelium discoideum, UniProt P08799, C312Y/S249N)", "T1 construct": "comprising amino acids 1-698, 1-765, and 1-839 respectively; made in house", "T1 sequence (P08799 1-765 S249N/C312Y)": "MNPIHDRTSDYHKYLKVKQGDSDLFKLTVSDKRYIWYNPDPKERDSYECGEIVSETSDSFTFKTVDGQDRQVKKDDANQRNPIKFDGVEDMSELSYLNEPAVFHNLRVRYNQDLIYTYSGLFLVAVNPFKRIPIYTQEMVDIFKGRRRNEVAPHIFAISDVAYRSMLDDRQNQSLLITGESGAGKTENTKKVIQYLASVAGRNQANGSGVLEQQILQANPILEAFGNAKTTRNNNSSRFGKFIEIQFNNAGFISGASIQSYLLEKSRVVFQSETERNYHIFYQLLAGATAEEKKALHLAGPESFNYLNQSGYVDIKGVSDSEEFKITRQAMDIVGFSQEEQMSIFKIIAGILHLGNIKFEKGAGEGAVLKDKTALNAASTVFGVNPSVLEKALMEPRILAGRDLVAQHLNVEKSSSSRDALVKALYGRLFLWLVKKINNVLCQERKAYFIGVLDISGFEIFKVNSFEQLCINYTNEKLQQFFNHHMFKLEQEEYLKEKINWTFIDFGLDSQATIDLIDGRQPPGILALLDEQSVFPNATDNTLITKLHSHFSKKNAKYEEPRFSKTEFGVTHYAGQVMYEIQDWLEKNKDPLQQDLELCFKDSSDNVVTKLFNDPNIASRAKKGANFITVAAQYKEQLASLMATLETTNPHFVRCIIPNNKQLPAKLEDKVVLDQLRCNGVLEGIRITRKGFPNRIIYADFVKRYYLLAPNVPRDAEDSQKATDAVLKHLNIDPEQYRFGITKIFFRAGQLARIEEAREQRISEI", "test": "Basal ATPase activity, Dictyostelium myosin-2", "type": "biochemical", "description": "(a) Concentrations of […] in the range from 1 to 50 μM activate the basal ATPase activity of Dictyostelium myosin-2 with an apparent half maximum activation constant AC50 of 18 μM. At concentrations of KIN-74>50 μM the basal ATPase activity of Dictyostelium myosin-2 is inhibited with IC50=90 μM.\nCompounds KIN-74, KIN-77 are activators of myosin-2 function. KIN-74 activates the ATPase activity of Dictyostelium myosin-2 in the absence of actin. ATPase activity is uncoupled from motor activity in this situation. The apparent half-maximum activation constant AC50 corresponds to 18 μM. Uncouplers have potential applications in inhibiting the overcontraction and overextension of cardiac muscles without being accompanied with a cardioinhibitory action. Therefore, compounds derived from KIN-74 have potential applications in the treatment of acute myocardial infarction helping to prevent the necrosis of cardiac muscles."}, "Dictyostelium myosin-2 [4]": {"target": "T2, Dictyostelium myosin-2 (Dictyostelium discoideum, UniProt P08799, C312Y/S249N)", "T2 construct": "comprising amino acids 1-698, 1-765, and 1-839 respectively; made in house", "test": "Actin-activated ATPase activity (NADH-coupled assay), Dictyostelium myosin-2", "type": "biochemical", "settings": "30 μM actin; read-out: IC50, ATPase activity in the presence of actin", "description": "Based on the structure of the myosin-2 motor domain with bound PBP, we performed molecular modeling studies to elucidate the specificity of PBP-binding to myosins from different classes. […] To test the predictions from the modeling studies, we determined actin-activated ATPase activities in the presence of 0 to 150 μM PBP with rabbit skeletal myosin-2 heavy meromyosin (HMM), myosin-5a isolated from chicken brain, and recombinant Dictyostelium myosin class-1, 2 and 5 motor-domain constructs (FIG. 9a). […] The concentrations of PBP required for half-maximal inhibition of the different myosin motors was calculated from fitting the data to hyperbolae. […] To determine the extend to which PBP impairs the coupling between the actin- and nucleotide-binding sites of myosin, we measured the ATP turn-over rates of Dictyostelium myosin-2 and myosin-5b motor domain constructs over the range from 0 to 50 μM F-actin in the absence and presence of 25 μM PBP.\nValues for the rate of maximum ATP turnover (kcat), the concentration of F-actin at which half-maximal activation is achieved (Kapp), and the apparent second order rate constant for actin binding (kcat/Kapp) were estimated from a fit of the data to a hyperbolic function. kcat/Kapp is a direct measure of the coupling efficiency between actin and nucleotide binding and can be determined from the initial slope at F-actin concentrations much smaller than Kapp. […] ATP turn-over rates of Dictyostelium myosin-2 (◯) and Dictyostelium myosin-5b (▪) at increasing F-actin concentrations in the absence (filled symbols) and presence (open symbols) of 25 μM pentabromopseudilin (FIG. 9b):\nProtein preparation. Rabbit fast skeletal muscle heavy meromyosin (HMM) was prepared as described by Kron and Spudich^9. Motor domain constructs of myosin-1E, myosin-2, and myosin-5b from Dictyostelium discoideum comprising amino acids 1-698, 1-765, and 1-839 respectively, were prepared as described previouslyl^10-12. Myosin-5a heavy meromyosin from chicken brain was provided by Dr. T. Scholz (Hannover Medical School, Germany) and F-actin was prepared as described by Lehrer and Kerwar^13.\nSteady-state kinetics. Basal and actin-activated Mg^2+-ATPase activities were measured with the NADH-coupled assay^19 in a buffer containing 25 mM HEPES, 25 mM KCl, and 4 mM MgCl2, 0.5 mM DTT at pH 7.0 in the presence of 1 mM ATP at 25° C. PBP was added to the reaction mixture in the absence of nucleotide and incubated for 20 minutes before the reaction was started by the addition of ATP. NADH oxidation was followed using the change in absorption at 340 nm in a Beckman DU-800 spectrophotometer."}, "Dictyostelium myosin-5b": {"target": "T3, Dictyostelium myosin-5b (Dictyostelium discoideum, UniProt P54697)", "T3 construct": "comprising amino acids 1-698, 1-765, and 1-839 respectively; made in house", "T3 sequence (P54697 1-839)": "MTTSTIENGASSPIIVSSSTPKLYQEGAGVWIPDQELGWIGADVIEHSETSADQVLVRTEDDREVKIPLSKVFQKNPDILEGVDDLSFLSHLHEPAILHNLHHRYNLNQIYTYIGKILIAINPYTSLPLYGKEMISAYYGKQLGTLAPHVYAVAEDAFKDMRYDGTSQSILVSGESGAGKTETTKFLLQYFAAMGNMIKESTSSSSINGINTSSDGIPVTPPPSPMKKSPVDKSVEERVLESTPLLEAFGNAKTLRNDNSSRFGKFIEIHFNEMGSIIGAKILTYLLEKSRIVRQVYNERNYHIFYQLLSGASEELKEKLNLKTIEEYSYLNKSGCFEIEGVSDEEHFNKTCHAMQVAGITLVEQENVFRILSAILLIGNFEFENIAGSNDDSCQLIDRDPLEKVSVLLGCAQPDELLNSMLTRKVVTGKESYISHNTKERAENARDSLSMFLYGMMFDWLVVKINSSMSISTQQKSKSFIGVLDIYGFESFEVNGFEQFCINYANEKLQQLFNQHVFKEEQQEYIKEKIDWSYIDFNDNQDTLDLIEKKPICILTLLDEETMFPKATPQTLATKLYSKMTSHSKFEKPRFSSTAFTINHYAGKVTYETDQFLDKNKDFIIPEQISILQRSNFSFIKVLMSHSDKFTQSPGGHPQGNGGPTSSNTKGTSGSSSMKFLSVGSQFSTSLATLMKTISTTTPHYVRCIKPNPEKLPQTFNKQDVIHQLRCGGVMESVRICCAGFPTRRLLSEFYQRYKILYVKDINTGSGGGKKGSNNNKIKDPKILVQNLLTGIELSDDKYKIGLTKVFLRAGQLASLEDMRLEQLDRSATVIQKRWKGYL", "test": "Basal ATPase activity, Dictyostelium myosin-5b", "type": "biochemical", "settings": "read-out: concentration required for half-maximal inhibition of basal ATPase activity", "source_text": "(§6) FIG. 18: KIN-68-inhibition of the basal ATPase activity of Dictyostelium myosin-1E and myosin-5b."}, "myosin-1 isoforms": {"test_system": "myosin-1 isoforms", "test": "Selectivity for myosin isoforms (Example 3), myosin-1", "type": "biochemical", "excerpt": "In this context, preferred selectivity means a more than 20-fold smaller IC50 value compared to fast skeletal muscle myosin-2 and other references myosins."}, "Dictyostelium myosin-1E": {"target": "T4, Dictyostelium myosin-1E (Dictyostelium discoideum, UniProt Q03479)", "T4 construct": "comprising amino acids 1-698, 1-765, and 1-839 respectively; made in house", "T4 sequence (Q03479 1-698)": "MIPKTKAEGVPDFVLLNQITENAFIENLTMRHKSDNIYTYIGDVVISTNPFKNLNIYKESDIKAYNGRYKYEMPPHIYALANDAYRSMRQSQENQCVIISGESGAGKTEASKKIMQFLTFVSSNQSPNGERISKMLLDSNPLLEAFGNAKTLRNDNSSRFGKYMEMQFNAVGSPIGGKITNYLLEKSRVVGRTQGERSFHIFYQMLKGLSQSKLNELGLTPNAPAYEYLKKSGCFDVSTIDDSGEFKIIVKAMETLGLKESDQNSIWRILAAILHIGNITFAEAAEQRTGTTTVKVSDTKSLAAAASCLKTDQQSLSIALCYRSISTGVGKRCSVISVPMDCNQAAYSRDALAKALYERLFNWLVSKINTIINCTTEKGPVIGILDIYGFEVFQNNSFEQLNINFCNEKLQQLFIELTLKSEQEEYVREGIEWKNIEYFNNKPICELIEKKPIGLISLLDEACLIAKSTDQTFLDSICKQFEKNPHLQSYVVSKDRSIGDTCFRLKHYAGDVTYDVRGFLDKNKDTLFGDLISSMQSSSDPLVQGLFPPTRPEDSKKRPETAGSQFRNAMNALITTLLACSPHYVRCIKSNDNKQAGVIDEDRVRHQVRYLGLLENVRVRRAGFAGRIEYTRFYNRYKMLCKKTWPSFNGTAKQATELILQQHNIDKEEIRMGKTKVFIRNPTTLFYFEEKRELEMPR", "test": "Basal ATPase activity, Dictyostelium myosin-1E", "type": "biochemical", "settings": "read-out: concentration required for half-maximal inhibition of basal ATPase activity", "source_text": "as §6"}},
  "note": "pIC50: −log10 of the molar value. Entries after “also recorded” stand apart in the source; their conditions may differ.",
  "data": [
    {"smiles": "Oc1cc(F)c(F)c2c1[nH]c1ccc(F)cc12", "note": "[KIN-93]", "values": [
      {"measurement": "effect on the blood stages of malaria", "setting": "Plasmodium merozoites", "result": "reducing the number of Plasmodium merozoites"},
      {"measurement": "LC50 at 48 h", "setting": "[1]", "result": "> 50", "unit": "µM"},
      {"measurement": "lethal effect on medaka embryos", "setting": "medaka embryos; below 50.0 μM", "result": "no lethal effect"},
      {"measurement": "embryonic development", "setting": "medaka embryos; in vivo", "result": "not impaired"},
      {"measurement": "general cytotoxicity for erythrocytes or for Plasmodium sporozoites", "setting": "Plasmodium sporozoites", "result": "No general cytotoxicity"},
      {"measurement": "gliding velocity compared with control parasites", "setting": "Plasmodium sporozoites; 10 μM", "result": "only half as fast"},
      {"measurement": "motility states of the sporozoite population", "setting": "Plasmodium sporozoites; 10 μM", "result": "switched the population to attached and waving states; also recorded: strongly reduced"},
      {"measurement": "velocity of clockwise (CW) motility", "setting": "Plasmodium sporozoites; 0.97 μm/s without inhibitor", "result": 0.58, "unit": "μm/s"},
      {"measurement": "velocity of counterclockwise (CCW) motility", "setting": "Plasmodium sporozoites; 1.13 μm/s without inhibitor", "result": 0.59, "unit": "μm/s"},
      {"measurement": "CC50 at 4 h", "setting": "in vitro", "result": "> 50", "unit": "µM"},
      {"measurement": "neutral red uptake experiments, defects", "setting": "[2]", "result": "do not reveal any defects"}
    ]},
    {"smiles": "Oc1c(F)cc(F)cc1-c1[nH]c(Br)c(Br)c1Br", "note": "[KIN-74, 2,3,4-tribromo-5 (1′ hydroxy, 2′,4′-difluorophenyl)pyrrole]", "values": [
      {"measurement": "AC50", "setting": "Dictyostelium myosin-2 [3]; absence of actin, 1 to 50 μM, read-out: apparent half maximum activation constant AC50, basal ATPase activity", "result": 18, "unit": "µM"},
      {"measurement": "pIC50", "setting": "Dictyostelium myosin-2 [3]; at concentrations >50 μM", "result": 4.05},
      {"measurement": "pIC50", "setting": "Dictyostelium myosin-2 [4]", "result": 4.05}
    ]},
    {"smiles": "Oc1c(Cl)cc(Cl)cc1-c1[nH]c(Cl)c(Cl)c1Cl", "note": "[KIN-68, pentachloropseudilin]", "values": [
      {"measurement": "pIC50", "setting": "Dictyostelium myosin-5b", "result": 3.98},
      {"measurement": "preferred selectivity: fold smaller IC50 compared to fast skeletal muscle myosin-2 and other reference myosins", "setting": "myosin-1 isoforms", "result": "more than 20 fold"},
      {"measurement": "pIC50", "setting": "Dictyostelium myosin-1E", "result": 4.25}
    ]}
  ]
}
